The values that follow come from patent US20220008296A1, “CAPSULE FORMULATION” (Capsugel Belgium NV, priority 2014, published 2022).

The conditions of series [1]: cited from earlier work.
A short description of series [2]: acid resistance experiment: litmus colour inside oil-filled, band-sealed DRcaps capsule submerged in acid. It is filed as physicochemical. On the set-up: key to Result (color): −: almost all red/unsuitable; +: about half red/passable; ++: all blue/excellent. The conditions noted are these: for liquid color / acidification inside the capsule (in words) / Result (color): 120 minutes after submersion in JP first liquid pH1.2, 37°; for liquid color / acidification inside the capsule (in words): Example 2; for Result (color): colour of litmus powder in the fill of a DRcaps capsule, n=3. As to the method: The fine powder of a litmus reagent that changes to red in response to acid (blue, Wako Pure Chemical Industries Ltd. high grade), used as an active ingredient, is dispersed or dissolved in 0.2% by weight each of MCT, which is an edible oil (medium chain fatty acid triglyceride, coconad MT (made by Kao Co.) and glycerin, which is a water-based edible additive (made by Kao Co.) (dissolves very readily in water, comparative example). Then, 300 μL each of this solution is loaded into the separated body portion of an acid resistant hard capsule made by Capsugel (DRcaps (trademark), size no. 2, transparent no color). Then, a capsule formulation is prepared by sealing the fitted part of the cap portion and the body portion of the hard capsule using a band sealing solution (see FIG. 1). It should be noted that the band sealing solution is produced based on the information described in International Application PCT/US2013/041838 (application date May 20, 2013) (title of invention “ACID RESISTANT BANDING SOLUTION FOR TWO PIECE HARD CAPSULES”) wherein US Patent Application No. 61/707,135 (application date: Sep. 28, 2012) forms the basic application, which is an undisclosed application. The composition of the band sealing solution is ethanol: 59.9% by weight, shellac: 37.0% by weight, water: 1.6% by weight, and surfactant (sorbitan fatty acid aster and glycerin fatty acid ester) 1.5% by weight.
These capsule formulations are wrapped in wire to prevent the capsule formulations from floating up, and submerged in the first liquid (pH1.2 liquid) in the Japanese Pharmacopoeia which is maintained at 37° to simulate the gastric acid inside a living organism.
The experiment was carried out with the same conditions used in example 1 (amount of oil, measurement conditions, measurement time, and the like), and the effect on acid resistance when another oil or surfactant is enclosed in the capsule was examined. In this example, the following criteria were determined based on the color of the fine litmus powder dissolved or dispersed in oil enclosed in a capsule.
These capsule formulations were wrapped in wire to prevent the capsule formulations from floating up, and submerged in the first liquid (pH1.2 liquid) in the Japanese Pharmacopoeia maintained at 37° to simulate the gastric acid inside a living organism. The color of the liquid in the capsule 120 minutes after submersion is shown (see FIG. 4).
It should be noted that because the four oils, DHA, rice germ oil, vitamin E, and vitamin A, are light yellow to dark green, visually confirming the change of the fine litmus powder from blue to red due to acid seeping into oil within the capsule was difficult. Therefore, the color was confirmed by enlarging the litmus particles dispersed within the oil from outside the capsule using a microscope. The determination criteria for this was the same as described above (see FIG. 5).

Take `OCC(O)CO` [Glycerin, reference compound]: in series [1], the “Specific Gravity (25° C.)” value is recorded as 1.264. In series [2], the “liquid color / acidification inside the capsule (in words)” value is listed as “the entire inside of the capsule turned red” and the “Result (color)” value is recorded as “−”. Besides, in series [2] (after 20 minutes in JP first liquid pH1.2, 37°, Example 1), the “liquid color in the capsule” value is given as “the entire inside of the capsule turned red”.
As for Vitamin A, the “Specific Gravity (25° C.)” value in series [1] was 0.92. Besides, in series [2], the “liquid color / acidification inside the capsule (in words)” value was “the interior of the capsule did not become acidic” and the “Result (color)” value was “++”.
With Glycerin fatty acid ester, the “Specific Gravity (25° C.)” value in series [1] is 1.02. Moreover, in series [2], the “liquid color / acidification inside the capsule (in words)” value is reported as “the entire inside of the capsule turned red” and the “Result (color)” value is given as “−”.
Consider Sorbitan fatty acid ester, for which, in series [1], the “Specific Gravity (25° C.)” value is 0.95. Besides, in series [2], the “liquid color / acidification inside the capsule (in words)” value is “the entire inside of the capsule turned red” and the “Result (color)” value is listed as “−”.
